ChEMBL document CHEMBL1201862, “PubChem BioAssay data set” (2004)
Values belong to the compound of their own block, whether it stands above or below them. Active and inactive are the calls of the source.

Experiments:
Assay type in all cases: functional
[1] = molecular target: DNA (cytosine-5)-methyltransferase 1 (Homo sapiens, UniProt P26358); assay: inhibition of DNA methylation by DNMT1 – biochemical, fluorescent molecular beacon, confirmation (AID 602386)
[2] = molecular target: T1, Low molecular weight phosphotyrosine protein phosphatase (Homo sapiens, UniProt P24666); conditions: read-out: IC50_Mean
T1 sequence (P24666 whole entry): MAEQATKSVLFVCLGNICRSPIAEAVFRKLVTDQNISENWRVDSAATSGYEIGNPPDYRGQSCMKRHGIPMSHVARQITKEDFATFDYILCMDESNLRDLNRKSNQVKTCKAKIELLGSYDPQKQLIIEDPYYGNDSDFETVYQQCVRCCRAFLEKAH

[3] = molecular target: T1, Low molecular weight phosphotyrosine protein phosphatase; conditions: read-out: IC50_Mean; remark: listed apart in the source
[4] = mouse fibroblast viability loss – cell-based, cherry-pick samples, set 2, cytotoxicity control for T. cruzi growth inhibitor project, dose response (AID 651817); conditions: NIH3T3
[5] = intracellular Trypanosoma cruzi inhibitors in host cells – cell-based, plate reader, cherry-pick samples, set 3, dose response (AID 651818);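 note: compounds incubated with infected cells for about four days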
[6] = cytotoxicity in HEK293 background cells – cell-based, dry powder, set 2, counter-screen for EBV LMP1 inhibitor project, dose response (AID 624374)
[7] = inhibitors of EBV LMP1 NF-kappaB signaling – cell-based, luciferase reporter, luminescence, dry powder, set 2, dose response (AID 624376)
[8] = molecular target: Arf-GAP with SH3 domain, ANK repeat and PH domain-containing protein 1 (Homo sapiens, UniProt Q9ULH1);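 note: biochemical fluorescence polarization dose–response screen measuring inhibition of ASAP1; ASAP1 GAP domain stimulating GTP hydrolysis by truncated human ARF1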
Sequence of Arf-GAP with SH3 domain, ANK repeat and PH domain-containing protein 1 (Q9ULH1 whole entry, the tested form may be a part): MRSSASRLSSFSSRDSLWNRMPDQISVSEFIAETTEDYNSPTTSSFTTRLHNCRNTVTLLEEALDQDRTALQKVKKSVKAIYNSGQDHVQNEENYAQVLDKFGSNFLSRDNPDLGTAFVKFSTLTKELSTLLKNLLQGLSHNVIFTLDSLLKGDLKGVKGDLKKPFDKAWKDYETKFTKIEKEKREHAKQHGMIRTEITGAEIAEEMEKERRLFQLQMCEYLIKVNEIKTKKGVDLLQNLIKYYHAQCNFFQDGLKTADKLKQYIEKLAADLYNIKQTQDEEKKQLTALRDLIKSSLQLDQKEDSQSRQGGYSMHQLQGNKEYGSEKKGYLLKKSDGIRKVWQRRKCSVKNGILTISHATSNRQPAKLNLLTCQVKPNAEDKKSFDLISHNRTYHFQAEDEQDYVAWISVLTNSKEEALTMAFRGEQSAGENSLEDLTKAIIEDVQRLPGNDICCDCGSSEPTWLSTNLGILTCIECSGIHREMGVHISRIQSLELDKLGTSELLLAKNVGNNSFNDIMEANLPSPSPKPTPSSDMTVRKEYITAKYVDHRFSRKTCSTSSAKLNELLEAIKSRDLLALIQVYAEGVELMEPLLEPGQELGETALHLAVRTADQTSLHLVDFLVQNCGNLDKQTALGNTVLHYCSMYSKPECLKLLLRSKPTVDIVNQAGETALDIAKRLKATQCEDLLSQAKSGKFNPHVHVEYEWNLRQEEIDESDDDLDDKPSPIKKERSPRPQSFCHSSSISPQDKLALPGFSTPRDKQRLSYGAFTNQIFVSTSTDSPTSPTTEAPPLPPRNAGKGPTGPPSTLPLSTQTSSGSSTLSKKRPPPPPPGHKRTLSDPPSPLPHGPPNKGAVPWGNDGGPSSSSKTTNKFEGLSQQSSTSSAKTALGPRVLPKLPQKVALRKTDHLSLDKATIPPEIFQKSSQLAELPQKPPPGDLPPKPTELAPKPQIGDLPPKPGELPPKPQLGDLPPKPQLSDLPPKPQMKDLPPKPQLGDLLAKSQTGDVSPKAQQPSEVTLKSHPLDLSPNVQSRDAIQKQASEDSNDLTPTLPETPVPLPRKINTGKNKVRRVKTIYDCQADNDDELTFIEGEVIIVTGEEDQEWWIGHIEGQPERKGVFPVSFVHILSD

Sequence of DNA (cytosine-5)-methyltransferase 1 (P26358 whole entry): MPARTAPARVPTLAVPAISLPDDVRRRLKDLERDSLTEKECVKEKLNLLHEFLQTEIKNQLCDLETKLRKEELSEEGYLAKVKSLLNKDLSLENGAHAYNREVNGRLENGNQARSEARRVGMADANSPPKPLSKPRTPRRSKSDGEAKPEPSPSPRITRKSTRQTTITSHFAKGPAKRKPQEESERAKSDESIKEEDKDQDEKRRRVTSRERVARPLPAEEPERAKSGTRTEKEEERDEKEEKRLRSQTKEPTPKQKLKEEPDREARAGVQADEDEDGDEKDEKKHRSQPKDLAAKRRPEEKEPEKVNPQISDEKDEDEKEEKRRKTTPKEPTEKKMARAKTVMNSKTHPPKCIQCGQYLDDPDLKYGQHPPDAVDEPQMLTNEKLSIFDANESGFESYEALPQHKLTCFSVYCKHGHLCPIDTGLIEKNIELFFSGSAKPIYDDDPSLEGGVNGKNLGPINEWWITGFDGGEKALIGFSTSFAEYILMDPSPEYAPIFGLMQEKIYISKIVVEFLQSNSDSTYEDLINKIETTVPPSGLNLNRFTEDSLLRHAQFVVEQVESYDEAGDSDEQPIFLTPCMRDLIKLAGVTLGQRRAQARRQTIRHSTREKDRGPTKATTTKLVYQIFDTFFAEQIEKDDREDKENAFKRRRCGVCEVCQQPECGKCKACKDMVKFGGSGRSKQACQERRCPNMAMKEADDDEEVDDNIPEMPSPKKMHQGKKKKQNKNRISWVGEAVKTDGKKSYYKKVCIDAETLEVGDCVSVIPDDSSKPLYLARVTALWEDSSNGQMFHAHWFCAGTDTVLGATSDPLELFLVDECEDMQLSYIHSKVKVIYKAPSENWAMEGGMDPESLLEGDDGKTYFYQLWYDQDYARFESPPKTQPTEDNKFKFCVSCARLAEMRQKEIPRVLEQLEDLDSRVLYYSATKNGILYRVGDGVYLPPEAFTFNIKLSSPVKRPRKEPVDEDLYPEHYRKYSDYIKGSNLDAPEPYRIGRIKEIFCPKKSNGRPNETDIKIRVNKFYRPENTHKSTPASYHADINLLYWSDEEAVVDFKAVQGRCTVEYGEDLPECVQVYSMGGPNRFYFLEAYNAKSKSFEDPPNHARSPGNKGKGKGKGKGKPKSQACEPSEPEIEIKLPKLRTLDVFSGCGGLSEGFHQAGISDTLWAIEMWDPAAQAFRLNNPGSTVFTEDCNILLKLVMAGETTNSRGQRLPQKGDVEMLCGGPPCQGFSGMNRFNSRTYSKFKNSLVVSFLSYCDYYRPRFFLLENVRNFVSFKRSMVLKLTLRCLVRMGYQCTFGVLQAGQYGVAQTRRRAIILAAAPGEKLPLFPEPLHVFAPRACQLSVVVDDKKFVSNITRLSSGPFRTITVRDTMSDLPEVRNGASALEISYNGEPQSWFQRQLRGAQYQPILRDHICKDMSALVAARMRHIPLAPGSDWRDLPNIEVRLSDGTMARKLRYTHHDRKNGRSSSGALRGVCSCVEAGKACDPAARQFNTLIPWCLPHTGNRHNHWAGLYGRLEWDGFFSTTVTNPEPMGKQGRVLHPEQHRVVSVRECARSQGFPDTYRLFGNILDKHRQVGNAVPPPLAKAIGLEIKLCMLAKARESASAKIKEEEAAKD

IC50 [1]: 4.93 µM (active)
IC50 [2]: > 80 µM (inactive)
IC50 [3]: 10.4 µM (active)
SMILES: Cc1ccc(-c2nn(-c3ccccc3)cc2C=C2SC(=S)N(CCS(=O)(=O)O)C2=O)cc1

SMILES: Cc1ccc(S(=O)(=O)Nc2ccc3c(c2)CC(=O)N([C@@H](C)CO)C[C@H](C)[C@@H](CN(C)Cc2ccc(Cl)c(Cl)c2)O3)cc1
AC50 [4]: 8.45 µM (active)
AC50 [5]: 3.89 µM (active)

SMILES: O=C(Cc1ccccn1)NCC[C@@H]1CC[C@H](NC(=O)Nc2ccc(Cl)cc2)[C@@H](CO)O1
AbsAC35 [6]: 102.52 µM
AbsAC35 [7]: 74.18 µM

IC50 [8]: 22.5 µM (inactive)
SMILES: O=[N+]([O-])c1ccc(OCCOc2ccccc2/C=N/n2cnnc2)cc1
